One series addresses P450 2C9 (Homo sapiens, UniProt P11712). The experiment in a line: P450 2C9 inhibition. Format: in vitro ADME. The protocol: (§1) Compound 76 was in several in vitro assays to investigate both metabolism and pharmacokinetics. These assays were performed according to known methods as generally described in the following references: Conde-Ceide et al. ACS Med. Chem. Lett. 2015, 6, 716-720; Morris et al. J. Med. Chem. 2014, 57, 10192-10197; and Bubser et al. ACS Chem. Neurosci. 2014, 5, 920-942.

A short description of the next series: in vivo. The settings on record: rat.
The nature of series [1]: MDCK-MDR1 permeability and efflux. Format: in vitro ADME. The settings on record: dog, MDCK-MDR1. The protocol:
as §1

For another series, the system named is MDCK-MDR1. The experiment in a line: MDCK-MDR1 permeability and efflux. Format: in vitro ADME. The settings on record: efflux ratio. The protocol: as §1
Series [2] relates to amphetamine-induced hyperlocomotion. The experiment in a line: amphetamine-induced hyperlocomotion in rats. Format: in vivo, male Sprague-Dawley rats. The settings on record: for percent reversal of amphetamine-induced hyperlocomotion: rat, 1 mg/kg amphetamine s.c. The protocol:
d-Amphetamine hemisulfate was obtained from Sigma (St. Louis, Mo.). Salt-correction was used to determine the correct amount of the d-amphetamine hemisulfate form in milligrams to add to sterile water in order to yield a […] solution, which would be dosed at 1 mL/kg body weight of each animal. […] The solutions were formulated so that animals were injected with a volume equal to 10 mL/kg body weight for all compounds. The appropriate amount according to the dosage was mixed in 10% Tween 80 (Sigma) in sterile water. The mixtures were then vortexed and stored in a 39° C. sonication bath for 1 hour, until in a microsuspension (except for the highest dose, which was a suspension).
Male Sprague-Dawley rats weighing 239-300 grams and averaging 265 g (Harlan, Inc., Indianapolis, Ind.) were used. They were housed in the animal care facility certified by the American Association for the Accreditation of Laboratory Animal Care (AALAC) under a 12-hour light/dark cycle (lights on: 6 a.m.; lights off: 6 p.m.) and had free access to food and water. The animals used in this experiment were food-deprived the evening before experimentation for oral dosing of compound/vehicle. The experimental protocols performed during the light cycle were approved by the Institutional Animals Care and Use Committee of Vanderbilt University and conformed to the guidelines established by the National Research Council Guide for the Care and Use of Laboratory Animals.
Male Harlan Sprague Dawley rats were habituated in Smart Open Field locomotor activity test chambers (Hamilton-Kinder, San Diego, Calif.) with 16×16 photo beams to automatically record locomotor activity. […] They were monitored for an additional 30 minutes and then injected subcutaneously with vehicle or 1 mg/kg amphetamine. Animals were then monitored for an additional 60 minutes, for a total of 120 minutes. Data were expressed as changes in ambulation defined as total number of beam breaks per 5 minute interval. Terminal brain and plasma samples were collected at the end of the study for pharmacokinetic analysis.
Behavioral data were analyzed using a two-way ANOVA with main effects of treatment and time. Post hoc analysis was performed using a Dunnett's t-test with all treatment groups compared to the VAMP group using GraphPad Prism V.5.04 (GraphPad Software, San Diego, Calif.). Data were graphed using GraphPad Prism V.5.04 (GraphPad Software, San Diego, Calif.). A probability of p<0.05 was taken as the level of statistical significance. In addition, the total number of beam breaks from the amphetamine administration (65 min) to the end of the study (120 min) was calculated and graphed. Percent Reversal was calculated as follows using Microsoft Excel: In each animal, total ambulation from t=65 to t=120 was summed. The mean of each sum was calculated in the VAMP group. Then, for each animal, Percent Reversal was calculated with the following formula: Percent Reversal=100−{[(total ambulation in each animal from t=65 to t=120)/(mean of each sum from t=65 to t=120 in VAMP group)]*100}. The mean Percent Reversal, as well as the standard error, was calculated for each dose group using GraphPad Prism V5.04.

Series [3] is described as follows: fraction unbound in plasma, dog. Format: in vitro ADME. To be noted: read-out: Dog Fu (plasma). The protocol: as §1
A further series has as its target P450 2D6 (Homo sapiens, UniProt P10635). Kind of series: P450 2D6 inhibition. Format: in vitro ADME. The protocol:
as §1

A short description of a further series: in vivo DMPK, dog. To be noted: 3 mg/kg.
For a further series, the system named is bacterial. The experiment in a line: bacterial cytotoxicity assay. Format: cell-based. The settings on record: 0.6-100 μM.
The target of the next series is T1, P450 1A2 (Homo sapiens, UniProt P05177).
T1 sequence (P05177 1-516): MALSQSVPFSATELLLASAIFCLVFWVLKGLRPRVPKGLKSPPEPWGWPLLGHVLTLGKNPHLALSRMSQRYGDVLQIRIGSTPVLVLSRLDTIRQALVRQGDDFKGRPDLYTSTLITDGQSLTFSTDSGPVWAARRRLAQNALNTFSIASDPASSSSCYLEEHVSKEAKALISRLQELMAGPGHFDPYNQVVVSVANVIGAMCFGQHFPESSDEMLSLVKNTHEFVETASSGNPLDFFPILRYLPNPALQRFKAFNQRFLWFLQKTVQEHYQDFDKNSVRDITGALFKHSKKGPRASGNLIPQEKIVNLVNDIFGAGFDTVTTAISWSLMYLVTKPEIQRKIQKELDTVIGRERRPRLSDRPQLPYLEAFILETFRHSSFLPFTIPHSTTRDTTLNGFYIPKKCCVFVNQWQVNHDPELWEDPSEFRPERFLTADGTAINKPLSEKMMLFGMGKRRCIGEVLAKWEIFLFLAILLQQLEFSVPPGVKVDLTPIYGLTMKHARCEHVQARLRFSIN
The experiment in a line: P450 1A2 inhibition. Format: in vitro ADME. The protocol: as §1

Molecules are shown by their SMILES.

A word on the IC50: it is the concentration that gives 50% inhibition. A low value points to higher potency. The term Vd denotes a proportionality between amount in the body and measured concentration, not a real space. Lower therefore signals little distribution into tissue. As usually defined, the clearance is the volume of plasma or blood freed of the substance per unit of time. A lower clearance goes with inefficient removal. A word on the half-life: it is how long it takes for the measured level to halve. The low end stands for rapid decline, the high end for slow decline. Usually Papp A→B stands for how fast a substance crosses the layer from the apical side. Low values mean slow passage, high ones fast passage.

Sequence of P450 2D6 (P10635 whole entry): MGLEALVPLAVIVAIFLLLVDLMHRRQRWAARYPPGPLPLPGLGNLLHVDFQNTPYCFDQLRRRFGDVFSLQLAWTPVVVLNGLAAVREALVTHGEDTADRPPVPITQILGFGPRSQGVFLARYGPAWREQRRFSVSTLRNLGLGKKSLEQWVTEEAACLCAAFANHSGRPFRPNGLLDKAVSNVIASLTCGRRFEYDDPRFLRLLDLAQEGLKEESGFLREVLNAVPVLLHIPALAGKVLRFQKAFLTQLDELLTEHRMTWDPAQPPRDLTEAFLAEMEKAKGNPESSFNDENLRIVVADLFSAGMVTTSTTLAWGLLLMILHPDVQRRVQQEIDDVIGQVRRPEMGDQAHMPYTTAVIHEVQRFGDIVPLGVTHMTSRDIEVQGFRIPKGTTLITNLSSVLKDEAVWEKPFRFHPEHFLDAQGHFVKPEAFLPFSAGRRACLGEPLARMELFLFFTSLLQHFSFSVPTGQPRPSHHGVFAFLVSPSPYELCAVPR
Sequence of P450 2C9 (P11712 whole entry): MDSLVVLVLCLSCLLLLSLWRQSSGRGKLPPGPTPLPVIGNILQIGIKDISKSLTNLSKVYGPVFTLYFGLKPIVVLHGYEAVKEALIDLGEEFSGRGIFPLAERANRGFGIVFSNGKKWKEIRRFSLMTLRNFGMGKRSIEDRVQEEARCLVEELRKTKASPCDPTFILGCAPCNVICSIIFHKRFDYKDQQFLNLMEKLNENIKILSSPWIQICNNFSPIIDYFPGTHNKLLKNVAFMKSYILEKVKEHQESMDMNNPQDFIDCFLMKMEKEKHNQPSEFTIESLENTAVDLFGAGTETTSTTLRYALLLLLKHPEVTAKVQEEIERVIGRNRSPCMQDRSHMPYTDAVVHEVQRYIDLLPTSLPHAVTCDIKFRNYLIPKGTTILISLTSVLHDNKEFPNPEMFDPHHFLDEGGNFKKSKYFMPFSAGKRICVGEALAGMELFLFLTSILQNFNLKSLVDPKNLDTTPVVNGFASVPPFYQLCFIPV

In the case of `Cc1nnc2sc3c(NCc4ccc(C(C)(C)O)cc4)ncnc3c2c1C` [Compound 76, 2-[4-[[(3,4-Dimethylpyrimido[4′,5′:4,5]thieno[2,3-c]pyridazin-8-yl)amino]methyl]phenyl]propan-2-ol], the IC50 against P450 2C9 is 16 µM; against P450 2D6, greater than 30 µM; on P450 1A2, greater than 30 µM. In the series “in vivo” (brain), this compound registered a Kp of 0.31. In “in vivo” (plasma), this compound yielded a distribution volume (Vd) of 1 L/kg. This compound also had a clearance in the series “in vivo” (plasma) of 4.4 mL/min/kg. For the same compound, the half-life in “in vivo” (plasma) is 3 h. Also, the apical-to-basolateral permeability (Papp A→B) in [1] was determined as 20 ×10⁻⁶ cm/s. Also, the “MDCK-MDR1 ER” value in the series on MDCK-MDR1 was 3.1 (Papp A→B:. The “percent reversal of amphetamine-induced hyperlocomotion” value in series [2] (0.1 mg/kg p.o.) is 8.1%; in [2] (0.3 mg/kg p.o.) it was 32.8%; in series [2] (1 mg/kg p.o.), 50.7%; in [2] (3 mg/kg p.o.) it was 44.3%; in [2] (10 mg/kg p.o.), 62.8%; in series [2] ([…] p.o.), 25.6%. The “reversal of amphetamine-induced hyperlocomotion (in words)” value in series [2] (systemic administration, similar extent as VU0467154 at 10 mg/kg p.o.) is “significant and sustained reversal”. Moreover, the fraction unbound in series [3] was determined as 0.057. The “Dog oral F” value in “in vivo DMPK, dog” worked out at 54%. In addition, the bacterial cytotoxicity result in the series with bacterial is listed as “clean”.
